{"source": "paper PMC10821229", "about": "“Synthesis and Antiviral Activity of Novel β-D-N4-Hydroxycytidine Ester Prodrugs as Potential Compounds for the Treatment of SARS-CoV-2 and Other Human Coronaviruses” (Pharmaceuticals, 2023)", "key": {"SARS-CoV-2 EG.5.1.1": {"system": "SARS-CoV-2 EG.5.1.1", "assay": "Inhibition of virus-induced cytopathic effect (MTT), SARS-CoV-2 EG.5.1.1", "type": "cell-based", "details": "Severe acute respiratory syndrome coronavirus 2"}, "SARS-CoV-2 BQ.1.1.45": {"system": "SARS-CoV-2 BQ.1.1.45", "assay": "Inhibition of virus-induced cytopathic effect (MTT), SARS-CoV-2 BQ.1.1.45", "type": "cell-based", "details": "Severe acute respiratory syndrome coronavirus 2"}, "HCoV-229E": {"system": "HCoV-229E", "assay": "Inhibition of virus-induced cytopathic effect (MTT), HCoV-229E", "type": "cell-based", "details": "Human coronavirus 229E, CPE inhibition, 100 TCID50, 72–96 h"}, "[1]": {"assay": "Cytotoxicity (CC50) in Vero E6 and huh-7 cells", "type": "cell-based", "details": "African green monkey (Vero E6) and human (huh-7), Vero E6 cells and huh-7 cells"}, "SARS-CoV-2 XBB.1.16": {"system": "SARS-CoV-2 XBB.1.16", "assay": "Inhibition of virus-induced cytopathic effect (MTT), SARS-CoV-2 XBB.1.16", "type": "cell-based", "details": "Severe acute respiratory syndrome coronavirus 2"}, "HIV": {"system": "HIV", "details": "compared with emtricitabine (FTC); cited from earlier work"}}, "note": "pIC50: −log10 of the molar value.", "data": [{"molecule": "O=C(COc1ccccc1)OC[C@H]1O[C@@H](n2ccc(NO)nc2=O)[C@H](O)[C@@H]1O", "note": "[SN_21, 5′-O-Phenoxyacetyl-N4-hydroxycytidine]", "values": [{"measurement": "pIC50", "setting": "SARS-CoV-2 EG.5.1.1", "value": 6.08}, {"measurement": "pIC50", "setting": "SARS-CoV-2 BQ.1.1.45", "value": 6.07}, {"measurement": "pIC50", "setting": "HCoV-229E", "value": 5.29}, {"measurement": "CC50", "setting": "[1]", "value": "≥ 50000", "unit": "nM"}, {"measurement": "pIC50", "setting": "SARS-CoV-2 XBB.1.16", "value": 5.89}]}, {"molecule": "O=C(Cc1ccccc1F)OC[C@H]1O[C@@H](n2ccc(NO)nc2=O)[C@H](O)[C@@H]1O", "note": "[SN_17, 5′-O-(2-Fluorophenyl)acetyl-N4-hydroxycytidine]", "values": [{"measurement": "pIC50", "setting": "SARS-CoV-2 EG.5.1.1", "value": 6.01}, {"measurement": "pIC50", "setting": "SARS-CoV-2 BQ.1.1.45", "value": 6.19}, {"measurement": "pIC50", "setting": "HCoV-229E", "value": 5.10}, {"measurement": "CC50", "setting": "[1]", "value": "≥ 50000", "unit": "nM"}, {"measurement": "pIC50", "setting": "SARS-CoV-2 XBB.1.16", "value": 5.77}]}, {"molecule": "O=C(OC[C@H]1O[C@@H](n2ccc(NO)nc2=O)[C@H](O)[C@@H]1O)C1(c2ccccc2)CC1", "note": "[SN_20, 5′-O-(1-Phenylcyclopropanoyl-1-carbonyl)-N4-hydroxycytidine]", "values": [{"measurement": "pIC50", "setting": "SARS-CoV-2 EG.5.1.1", "value": "< 4.00"}, {"measurement": "pIC50", "setting": "SARS-CoV-2 BQ.1.1.45", "value": "≤ 4.30"}, {"measurement": "pIC50", "setting": "HCoV-229E", "value": "< 4.00"}, {"measurement": "CC50", "setting": "[1]", "value": "≥ 50000", "unit": "nM"}, {"measurement": "pIC50", "setting": "SARS-CoV-2 XBB.1.16", "value": "< 4.00"}]}, {"molecule": "COc1ccc(CC(=O)OC[C@H]2O[C@@H](n3ccc(NO)nc3=O)[C@H](O)[C@@H]2O)cc1", "note": "[SN_16, 5′-O-(4-Methoxyphenyl)acetyl-N4-hydroxycytidine]", "values": [{"measurement": "pIC50", "setting": "SARS-CoV-2 EG.5.1.1", "value": 6.25}, {"measurement": "pIC50", "setting": "SARS-CoV-2 BQ.1.1.45", "value": 6.15}, {"measurement": "pIC50", "setting": "HCoV-229E", "value": 5.14}, {"measurement": "CC50", "setting": "[1]", "value": "≥ 50000", "unit": "nM"}, {"measurement": "pIC50", "setting": "SARS-CoV-2 XBB.1.16", "value": 5.69}]}, {"molecule": "O=C(Cc1ccccc1Cl)OC[C@H]1O[C@@H](n2ccc(NO)nc2=O)[C@H](O)[C@@H]1O", "note": "[SN_19, 5′-O-(2-Chlorophenyl)acetyl-N4-hydroxycytidine]", "values": [{"measurement": "pIC50", "setting": "SARS-CoV-2 EG.5.1.1", "value": 5.67}, {"measurement": "pIC50", "setting": "SARS-CoV-2 BQ.1.1.45", "value": 5.63}, {"measurement": "pIC50", "setting": "HCoV-229E", "value": 4.62}, {"measurement": "CC50", "setting": "[1]", "value": "≥ 50000", "unit": "nM"}, {"measurement": "pIC50", "setting": "SARS-CoV-2 XBB.1.16", "value": 5.24}]}, {"molecule": "CCCCCCCCCCCCCC(=O)OC[C@@H]1O[C@H](n2cc(F)c(N)nc2=O)CS1", "values": [{"measurement": "times higher anti-HIV activity than the parent drug", "setting": "HIV", "value": "10–24 times"}]}, {"molecule": "CC(C)C(=O)OC[C@H]1O[C@@H](n2ccc(NO)nc2=O)[C@H](O)[C@@H]1O", "note": "[EIDD-2801, Molnupiravir, reference compound]", "values": [{"measurement": "pIC50", "setting": "SARS-CoV-2 EG.5.1.1", "value": 6.28}, {"measurement": "pIC50", "setting": "SARS-CoV-2 BQ.1.1.45", "value": 6.51}, {"measurement": "pIC50", "setting": "HCoV-229E", "value": 5.46}, {"measurement": "CC50", "setting": "[1]", "value": "≥ 50000", "unit": "nM"}, {"measurement": "pIC50", "setting": "SARS-CoV-2 XBB.1.16", "value": 5.82}]}, {"molecule": "Cc1cccc(OCC(=O)OC[C@H]2O[C@@H](n3ccc(NO)nc3=O)[C@H](O)[C@@H]2O)c1", "note": "[SN_22, 5′-O-(3-Methylphenoxy)acetyl-N4-hydroxycytidine]", "values": [{"measurement": "pIC50", "setting": "SARS-CoV-2 EG.5.1.1", "value": 6.70}, {"measurement": "pIC50", "setting": "SARS-CoV-2 BQ.1.1.45", "value": 6.68}, {"measurement": "pIC50", "setting": "HCoV-229E", "value": 5.79}, {"measurement": "CC50", "setting": "[1]", "value": "≥ 50000", "unit": "nM"}, {"measurement": "pIC50", "setting": "SARS-CoV-2 XBB.1.16", "value": 6.60}]}, {"molecule": "COc1cccc(CC(=O)OC[C@H]2O[C@@H](n3ccc(NO)nc3=O)[C@H](O)[C@@H]2O)c1", "note": "[SN_15, 5′-O-(3-Methoxyphenyl)acetyl-N4-hydroxycytidine]", "values": [{"measurement": "pIC50", "setting": "SARS-CoV-2 EG.5.1.1", "value": 6.28}, {"measurement": "pIC50", "setting": "SARS-CoV-2 BQ.1.1.45", "value": 6.13}, {"measurement": "pIC50", "setting": "HCoV-229E", "value": 4.96}, {"measurement": "CC50", "setting": "[1]", "value": "≥ 50000", "unit": "nM"}, {"measurement": "pIC50", "setting": "SARS-CoV-2 XBB.1.16", "value": 5.68}]}, {"molecule": "Cc1ccc(CC(=O)OC[C@H]2O[C@@H](n3ccc(NO)nc3=O)[C@H](O)[C@@H]2O)cc1", "note": "[SN_14, 5′-O-(4-Methylphenyl)acetyl-N4-hydroxycytidine]", "values": [{"measurement": "pIC50", "setting": "SARS-CoV-2 EG.5.1.1", "value": 5.96}, {"measurement": "pIC50", "setting": "SARS-CoV-2 BQ.1.1.45", "value": 6.15}, {"measurement": "pIC50", "setting": "HCoV-229E", "value": 4.98}, {"measurement": "CC50", "setting": "[1]", "value": "≥ 50000", "unit": "nM"}, {"measurement": "pIC50", "setting": "SARS-CoV-2 XBB.1.16", "value": 5.67}]}, {"molecule": "COc1cccc(CCC(=O)OC[C@H]2O[C@@H](n3ccc(NO)nc3=O)[C@H](O)[C@@H]2O)c1", "note": "[SN_23, 5′-O-3-(3-Methoxyphenyl)propanoyl-N4-hydroxycytidine]", "values": [{"measurement": "pIC50", "setting": "SARS-CoV-2 EG.5.1.1", "value": 6.52}, {"measurement": "pIC50", "setting": "SARS-CoV-2 BQ.1.1.45", "value": 6.59}, {"measurement": "pIC50", "setting": "HCoV-229E", "value": 5.77}, {"measurement": "CC50", "setting": "[1]", "value": "≥ 50000", "unit": "nM"}, {"measurement": "pIC50", "setting": "SARS-CoV-2 XBB.1.16", "value": 5.99}]}, {"molecule": "O=C(Cc1ccc(F)cc1)OC[C@H]1O[C@@H](n2ccc(NO)nc2=O)[C@H](O)[C@@H]1O", "note": "[SN_18, 5′-O-(4-Fluorophenyl)acetyl-N4-hydroxycytidine]", "values": [{"measurement": "pIC50", "setting": "SARS-CoV-2 EG.5.1.1", "value": 5.75}, {"measurement": "pIC50", "setting": "SARS-CoV-2 BQ.1.1.45", "value": 5.92}, {"measurement": "pIC50", "setting": "HCoV-229E", "value": 4.68}, {"measurement": "CC50", "setting": "[1]", "value": "≥ 50000", "unit": "nM"}, {"measurement": "pIC50", "setting": "SARS-CoV-2 XBB.1.16", "value": 5.56}]}]}
